Key:
[1] = system: drusen-like lesion in retinal tissue of a macaque; conditions: administered to vitreous humor; cited from earlier work
[2] = system: Crb1^rd8/rd8 mouse suffering from fundus degenerative retinopathy; experiment: Intragastric administration therapy of Crb1^rd8/rd8 mouse suffering from fundus degenerative retinopathy; count of fundus light spots; format: in vivo; conditions: for Eyes with slight decrease of crystalline lens transparency (fundus light spots cannot be observed clearly): 0.3 g/kg intragastric; for Change of spots 4 weeks after drug administration / Change of spots 2 weeks after drug administration: change of number of fundus light spots, Crb1^rd8/rd8 mouse, mean ± s; for Change of spots 4 weeks after drug administration: 0.3 g/kg intragastric once every other day for 4 weeks, P = 0.0005 vs model control group; for Change of spots 2 weeks after drug administration: 0.3 g/kg intragastric once every other day, P = 0.1518 vs model control group
Description: The mouse is anaesthetized and pupils are dilated. A cornea remains moist by applying hydroxypropyl methylcellulose eye drops regularly. A mouse fundus photo is obtained by using a Micron IV mouse fundus camera (Phoenix Research Laboratories, Inc., Pleasanton, CA, USA).
When a sample for test is prepared, 4 mL of castor oil which is already autoclaved is measured, 1.2 g of compound 6 powder is weighted, 1-2 mL of castor oil is added, full grinding is performed, a ground drug and residual castor oil are all transferred to a 50 mL tube with 36 mL ultrapure water to be oscillated and uniformly mixed for still standing overnight, so a compound 6 suspension with a concentration being 30 mg/mL is prepared, and the prepared drug liquid is labeled, saved at a normal temperature and used up within a month.
• Species and strains: Crb1^rd8/rd8 mouse • Grade: SPF grade • Quantity and gender: 18 mice, either gender • Weight range: 16-24 g • Supply unit: Gempharmatech Co., Ltd.
When drug administration starts, a healthy one-month-old Crb1^rd8/rd8 mouse is selected for an experiment.
Animals are hierarchically divided according to weights and then randomly divided into a model control group and a compound 6 group.
Drug administration route and method: intragastric administration, 10.0 mL/kg weight
Drug administration frequency and time limit: once every other day, for 4 weeks
Dosage of the compound 6 is 0.3 g/kg weight for the mouse and is converted according to previous clinical medication.
One-month-old Crb1^rd8/rd8 mice are randomly divided into the model control group and the compound 6 drug administration group. A solvent or a compound 6 drug is administered intragastrically to the animals, a dosage of the compound 6 is 0.3 g/kg, once every other day, continuous drug administration for 4 weeks. The number of fundus light slots 2 weeks and 4 weeks after the mouse is administered intragastrically is recorded for analysis and comparison.
A change of the number of fundus light spots of the mice at each time point after drug administration is used as a parameter, and SPSS software is used for the statistic analysis. A statistical result is represented by X+s; and an inspection level=0.05, and an average of experiment data and statistically processed data remain 2 decimal places.

| SMILES | Size of the drusen-like lesion in retinal tissue compared with a control [1] | Inhibition of fundus degenerative retinopathy ([2]; Crb1^rd8/rd8 mice, dosage of 0.3 g/kg) | Eyes with slight decrease of crystalline lens transparency (fundus light spots cannot be observed clearly) ([2]; Week 2 of the experiment, attributed to anesthesia, correlation with compound not excluded) | Eyes with slight decrease of crystalline lens transparency (fundus light spots cannot be observed clearly) ([2]; Week 4 of the experiment, 1/18 eye also in model control group) | Change of spots 4 weeks after drug administration [2] | Change of spots 4 weeks after drug administration ([2]; listed as compound 6) | Change of spots 2 weeks after drug administration [2] | Change of spots 2 weeks after drug administration ([2]; listed as compound 6) |
| --- | --- | --- | --- | --- | --- | --- | --- | --- |
| CN[C@H](CC(C)C)C(=O)N[C@H]1C(=O)N[C@@H](CC(N)=O)C(=O)N[C@H]2C(=O)N[C@H]3C(=O)N[C@H](C(=O)N[C@H](C(=O)O)c4cc(O)cc(O)c4-c4cc3ccc4O)[C@H](O)c3ccc(c(Cl)c3)Oc3cc2cc(c3O[C@@H]2O[C@H](CO)[C@@H](O)[C@H](O)[C@H]2O[C@H]2C[C@](C)(N)[C@H](O)[C@H](C)O2)Oc2ccc(cc2Cl)[C@H]1O [vancomycin] | reduce a size of the drusen-like lesion | – | – | – | – | – | – | – |
| CCCCCCCCOC(=O)c1cc(O)c(O)c(O)c1 [Compound 6, octyl gallate] | – | effectively inhibit | 2/18 | 1/18 | −3.63 ± 4.06 | −3.63±4.06 | 1.31 ± 3.18 | 1.31±3.18 |

Source: patent US20250000837A1, “METHOD FOR TREATING RETINAL DEGENERATION” (SMILEBIOTEK ZHUHAI LIMITED, priority 2021, published 2025)
